Reference: US12258554B2 (priority 2014, dated 2025)
Several values for one entry are separate records, joined by “and”; a condition that tells them apart may be missing. Identical values can stand only once. Like-named read-outs stand apart in the source and are kept apart here. Where a SMILES comes first, the peptide text is derived from it. Bridges are numbered along the chain shown (N, C = ends). [ ]: non-standard residue; d: D form. The star is where a group is joined. ξ: configuration not given here. Pentadecanoyl(3ξ-OH,15-Gua) = N=C(N)NCCCCCCCCCCCCC(O)CC(=O)*; d(aThr) = C[C@@H](O)[C@@H](N)C(=O)O; Thr(3ξ) = CC(O)[C@H](N)C(=O)O; ξY = NC(Cc1ccc(O)cc1)C(=O)O

Tests used:
[1] = system: Phytophthora infestans (PHYTIN); format: in vivo; settings: for % efficacy (% fungal attack): late blight on tomato, protective application, metabolite conc. 7.2 ppm, visually assessed 5-7 days after inoculation; for % efficacy PHYTIN: in planta, 360 ppm, assessed 5-7 days after inoculation
[2] = system: Fusarium graminearum (GIBBZE); format: in vivo; settings: for % efficacy (% fungal attack): head blight on wheat, protective application, metabolite conc. 360 ppm, visually assessed 5-7 days after inoculation
[3] = system: Alternaria solani (ALTESO); test: Fungal growth assay in 96 well plates; format: cell-based; settings: OD 600 nm, YBG, about 18° C.
Method: (§1) Fungal growth assays were performed in 96 well plates with spore suspension of the pathogen Botrytis cinerea (BOTRCI, in YBA [10 g Bacto peptone (Becton Dickinson 211677), 10 g yeast extract (Becton Dickinson 212750), 20 g sodium acetate, ad 1000 mL aqua bidest] or Alternaria solani (ALTESO, in YBG [10 g Bacto peptone (Becton Dickinson 211677), 10 g yeast extract (Becton Dickinson 212750), 20 g glycerine 99%, ad 1000 mL aqua bidest]). Fusaricidins and compounds 1A and 1B were dissolved and diluted in DMSO. Different concentrations ranging from 60 μM down to 0.3 μM were pipetted into the microtiter plate. An aqueous suspension of 10^4 spores/ml was added. The plates were incubated at about 18° C. Fungal growth was determined by measuring the optical density at 600 nm in a microplate reader 3 and 7 days after the inoculation of the spores and compared to the untreated control (DMSO). IC50 (concentration [μM] of the respective metabolite required for 50% inhibition of fungal growth) has been determined thereafter.

[4] = system: Botrytis cinerea (BOTRCI); test: Fungal growth assay in 96 well plates; format: cell-based; settings: evaluation 7 d after inoculation, OD 600 nm, YBA, about 18° C.; read-out: Fungal growth inhibition (IC50) BOTRCI (7d)
Method: as §1

[5] = system: Botrytis cinerea (BOTRCI); settings: in vivo
[6] = system: Alternaria solani (ALTESO); settings: in vivo
[7] = system: Phakopsora pachyrhizi (PHAKPA); settings: in vivo
[8] = system: important fungal diseases on crop plants; format: in vivo; settings: metabolites; for controlling important fungal diseases on crop plants: dose levels as low as 7.2 ppm; for antifungal efficacy compared with Fusaricidin A, B and D: glasshouse trials
[9] = system: Septoria tritici (SEPTTR); test: Glasshouse test, speckled leaf blotch on wheat, protective application; format: in vivo; settings: metabolite conc. 360 ppm
Method: Commercially available young wheat seedlings were used for the described greenhouse trial. 2 replications (pots with 1 plant each) were used per treatment. Plants were grown in commercially available substrate (Universal, Floragard) at approx. 22° C. in the greenhouse. The humidity was controlled using a special device (˜90% humidity). The plants were sprayed to runoff with crude culture broth of 2-6 days old cultures of Paenibacillus spp. (depending on the setup) using a spray cabinet. Culture conditions are described in Example 3. One day after application the treated plants were inoculated with a suspension of spores of Septoria tritici (SEPTTR). After inoculation, the trial plants were immediately transferred to a humid chamber. The extent of fungal attack on the leaves was visually assessed 21-28 days after inoculation.

[10] = system: clinically relevant fungi and gram-positive bacteria such a Staphylococcus aureus; settings: ChemMedChem 7, 871-882, 2012; cited from earlier work
[11] = evaluation 3 d after inoculation, read-out: Fungal growth inhibition (IC50) ALTESO (3 d)
[12] = evaluation 7 d after inoculation, read-out: Fungal growth inhibition (IC50) ALTESO (7 d)

SMILES | % efficacy (% fungal attack) [1] [%] | % efficacy (% fungal attack) [2] [%] | IC50 [3, 11] [nM] | IC50 [3, 12] [nM] | IC50 [4] [nM] | % efficacy PHYTIN [1] [%] | % efficacy BOTRCI [5] | % efficacy ALTESO [6] [%] | % efficacy PHAKPA [7] [%] | % efficacy GIBBZE ([2]; in planta, 360 ppm, assessed 5-7 days after inoculation) [%] | controlling important fungal diseases on crop plants [8] | antifungal efficacy compared with Fusaricidin A, B and D [8] | % efficacy (% fungal attack) [9] [%] | MIC value range [10] [µg/mL]
CC(C)[C@@H]1NC(=O)[C@@H](C(C)C)NC(=O)[C@@H](NC(=O)CC(O)CCCCCCCCCCCCN=C(N)N)C(C)OC(=O)[C@@H](C)NC(=O)[C@@H](CCC(N)=O)NC(=O)[C@@H]([C@H](C)O)NC1=O (stereo in doubt) [Compound 5B, fusaricidin B] | 4 | 0 | 1100 | 600 | 600 |  |  |  |  |  |  |  |  | 
CCC(C)C1NC(=O)C(NC(=O)CC(O)CCCCCCCCCCCCNC(=N)N)C(C)OC(=O)C(C)NC(=O)C(CC(N)=O)NC(=O)C(C(C)O)NC(=O)C(Cc2ccc(O)cc2)NC1=O (stereo not shown) [Compound 1A] ({Pentadecanoyl(3ξ-OH,15-Gua)}-TIYTNA; ester 1-C; configuration not given here) |  | 49 | 600 | 500 | 300 | 100 | 99% and 97% | 74 | 95 | 49 | effective | higher antifungal efficacy than Fusaricidin A, B and D |  | 
CCC(C)C1NC(=O)C(NC(=O)CC(O)CCCCCCCCCCCCNC(=N)N)C(C)OC(=O)C(C)NC(=O)C(CCC(N)=O)NC(=O)C(C(C)O)NC(=O)C(Cc2ccc(O)cc2)NC1=O (stereo not shown) [Compound 1B] ({Pentadecanoyl(3ξ-OH,15-Gua)}-TIYTQA; ester 1-C; configuration not given here) | 44 |  | 600 | 400 | 400 | 100 | 97% and 100% |  | 97 |  | effective | higher antifungal efficacy than Fusaricidin A, B and D | 80 | 
CC1OC(=O)[C@@H](C)NC(=O)[C@@H](CCC(N)=O)NC(=O)[C@@H]([C@H](C)O)NC(=O)C(Cc2ccc(O)cc2)NC(=O)[C@@H](C(C)C)NC(=O)[C@H]1NC(=O)CC(O)CCCCCCCCCCCCN=C(N)N (stereo partly shown) [Compound 2B, fusaricidin D] ({Pentadecanoyl(3ξ-OH,15-Gua)}-[Thr(3ξ)][dV][ξY][dT][dQ][dA]; ester 1-C) | 0 |  | 1100 | 600 | 500 |  |  |  |  |  |  |  | 50 | 
CC(C)[C@@H]1NC(=O)[C@@H](C(C)C)NC(=O)[C@@H](NC(=O)CC(O)CCCCCCCCCCCCN=C(N)N)[C@@H](C)OC(=O)[C@@H](C)NC(=O)[C@@H](CC(N)=O)NC(=O)[C@@H]([C@@H](C)O)NC1=O (stereo partly shown) [Compound 5A, fusaricidin A] ({Pentadecanoyl(3ξ-OH,15-Gua)}-T[dV]V[d(aThr)][dN][dA]; ester 1-C) | 15 | 31 | 1300 | 700 | 500 |  |  |  |  |  |  |  |  | 0.78 to 3.12
